From the NIST ThermoML archive (doi:10.1016/j.jct.2016.03.026)

Test: xn = mol fraction of the nth substance listed
Conditions: 283.15 K, Fluid (supercritical or subcritical phases), Vibrating tube method, x1 = 0.97

O=C=O [carbon dioxide] + CO
Conditions	mass density [kg/m3]
10450 kPa	927.45
10475 kPa	927.61
10500 kPa	927.78
10525 kPa	927.92
10550 kPa	928.1
10575 kPa	928.27
10600 kPa	928.46
10625 kPa	928.66
10650 kPa	928.76
10675 kPa	928.84
10700 kPa	929
10725 kPa	929.16
10750 kPa	929.25
10775 kPa	929.45
10800 kPa	929.62
10825 kPa	929.74
10850 kPa	929.88
10875 kPa	930.06
10900 kPa	930.27
10925 kPa	930.41
10950 kPa	930.57
10975 kPa	930.73
11000 kPa	930.89
11025 kPa	931.03
11050 kPa	931.19
11075 kPa	931.33
11100 kPa	931.58
11125 kPa	931.69
11150 kPa	931.86
11175 kPa	932.02
11200 kPa	932.18
11225 kPa	932.34
11250 kPa	932.51
11275 kPa	932.67
11300 kPa	932.9
11325 kPa	933.08
11350 kPa	933.16
11375 kPa	933.37
11400 kPa	933.49
11425 kPa	933.66
11450 kPa	933.88
11475 kPa	933.98
11500 kPa	934.17
11525 kPa	934.39
11550 kPa	934.47
11575 kPa	934.64
11600 kPa	934.8
11625 kPa	934.96
11650 kPa	935.12
11675 kPa	935.29
11700 kPa	935.45
11725 kPa	935.61
11750 kPa	935.78
11775 kPa	935.94
11800 kPa	936.1
11825 kPa	936.26
11850 kPa	936.43
11875 kPa	936.59
11900 kPa	936.74
11925 kPa	936.92
11950 kPa	937.07
11975 kPa	937.23
12000 kPa	937.33
12025 kPa	937.53
12050 kPa	937.68
12075 kPa	937.82
12100 kPa	937.98
12125 kPa	938.14
12150 kPa	938.31
12175 kPa	938.47
12200 kPa	938.63
12225 kPa	938.8
12250 kPa	938.96
12275 kPa	939.1
12300 kPa	939.21
12325 kPa	939.37
12350 kPa	939.53
12375 kPa	939.7
12400 kPa	939.86
12425 kPa	940.02
12450 kPa	940.19
12475 kPa	940.27
12500 kPa	940.45
12525 kPa	940.59
12550 kPa	940.76
12575 kPa	940.92
12600 kPa	941.08
12625 kPa	941.25
12650 kPa	941.41
12675 kPa	941.57
12700 kPa	941.74
12725 kPa	941.87
12750 kPa	942.06
12775 kPa	942.16
12800 kPa	942.34
12825 kPa	942.47
12850 kPa	942.63
12875 kPa	942.8
12900 kPa	942.96
12925 kPa	943.13
12950 kPa	943.22
12975 kPa	943.37
13000 kPa	943.53
13025 kPa	943.7
13050 kPa	943.86
13075 kPa	944.02
13100 kPa	944.17
13125 kPa	944.27
13150 kPa	944.43
13175 kPa	944.59
13200 kPa	944.76
13225 kPa	944.92
13250 kPa	945.05
13275 kPa	945.17
13300 kPa	945.33
13325 kPa	945.49
13350 kPa	945.66
13375 kPa	945.77
13400 kPa	945.9
13425 kPa	946.06
13450 kPa	946.23
13475 kPa	946.39
13500 kPa	946.47
13525 kPa	946.63
13550 kPa	946.8
13575 kPa	946.94
13600 kPa	947.04
13625 kPa	947.2
13650 kPa	947.37
13675 kPa	947.53
13700 kPa	947.69
13725 kPa	947.78
13750 kPa	947.94
13775 kPa	948.1
13800 kPa	948.24
13825 kPa	948.4
13850 kPa	948.51
13875 kPa	948.67
13900 kPa	948.84
13925 kPa	948.95
13950 kPa	949.1
13975 kPa	949.24
14000 kPa	949.41
14025 kPa	949.51
14050 kPa	949.65
14075 kPa	949.82
14100 kPa	949.98
14125 kPa	950.11
14150 kPa	950.22
14175 kPa	950.39
14200 kPa	950.55
14225 kPa	950.7
14250 kPa	950.8
14275 kPa	950.96
14300 kPa	951.12
14325 kPa	951.2
14350 kPa	951.37
14375 kPa	951.51
14400 kPa	951.61
14425 kPa	951.77
14450 kPa	951.93
14475 kPa	952.09
14500 kPa	952.19
14525 kPa	952.37
14550 kPa	952.51
14575 kPa	952.59
14600 kPa	952.75
14625 kPa	952.93
14650 kPa	953.08
14675 kPa	953.17
14700 kPa	953.32
14725 kPa	953.48
14750 kPa	953.62
14775 kPa	953.73
14800 kPa	953.88
14825 kPa	954.02
14850 kPa	954.14
14875 kPa	954.28
14900 kPa	954.41
14925 kPa	954.57
14950 kPa	954.68
14975 kPa	954.79
15000 kPa	954.95
15025 kPa	955.09
15050 kPa	955.2
15075 kPa	955.36
15100 kPa	955.44
15125 kPa	955.6
15150 kPa	955.77
15175 kPa	955.88
15200 kPa	956.01
15225 kPa	956.18
15250 kPa	956.27
15275 kPa	956.42
15300 kPa	956.56
15325 kPa	956.66
15350 kPa	956.78
15375 kPa	956.93
15400 kPa	957.07
15425 kPa	957.17
15450 kPa	957.32
15475 kPa	957.47
15500 kPa	957.56
15525 kPa	957.72
15550 kPa	957.84
15575 kPa	957.97
15600 kPa	958.13
15625 kPa	958.22
15650 kPa	958.37
15675 kPa	958.52
15700 kPa	958.62
15725 kPa	958.78
15750 kPa	958.89
15775 kPa	959.05
15800 kPa	959.19
15825 kPa	959.3
15850 kPa	959.43
15875 kPa	959.55
15900 kPa	959.71
15925 kPa	959.84
15950 kPa	959.94
15975 kPa	960.09
16000 kPa	960.25
16025 kPa	960.33
16050 kPa	960.49
16075 kPa	960.6
16100 kPa	960.74
16125 kPa	960.89
16150 kPa	960.98
16175 kPa	961.15
16200 kPa	961.23
16225 kPa	961.39
16250 kPa	961.53
16275 kPa	961.63
16300 kPa	961.74
16325 kPa	961.89
16350 kPa	962.02
16375 kPa	962.15
16400 kPa	962.28
16425 kPa	962.42
16450 kPa	962.53
16475 kPa	962.61
16500 kPa	962.78
16525 kPa	962.86
